Tests used:
Assay type in all cases: toxicity, cell-based
Fibroblast = assay: Incucyte cell viability with human fibroblast; settings: 10 µM, compound concentration 10 uM
U2OS = assay: Incucyte cell viability with U2OS; settings: human, 10 µM, compound concentration 10 uM
HEK-293T = assay: Incucyte cell viability with HEK293T; settings: human, 10 µM, compound concentration 10 uM
[1] = 0 h, replicate number 1, timepoint 0 hours
[2] = 0 h, replicate number 2, timepoint 0 hours
[3] = 6 h, replicate number 1, timepoint 6 hours
[4] = 12 h, replicate number 1, timepoint 12 hours
[5] = 12 h, replicate number 2, timepoint 12 hours
[6] = 18 h, replicate number 1, timepoint 18 hours
[7] = 18 h, replicate number 2, timepoint 18 hours
[8] = 24 h, replicate number 1, timepoint 24 hours
[9] = 24 h, replicate number 2, timepoint 24 hours
[10] = 6 h, replicate number 2, timepoint 6 hours
Note: unitless GR value; below 1 slowed growth and below 0 cell loss.

Row | Compound | Growth Rate (Fibroblast; [2]) | Growth Rate (Fibroblast; [3]) | Growth Rate (Fibroblast; [4]) | Growth Rate (Fibroblast; [5]) | Growth Rate (Fibroblast; [6]) | Growth Rate (Fibroblast; [8]) | Growth Rate (Fibroblast; [9]) | Growth Rate (U2OS; [2]) | Growth Rate (U2OS; [3]) | Growth Rate (U2OS; [10]) | Growth Rate (U2OS; [4]) | Growth Rate (U2OS; [5]) | Growth Rate (U2OS; [6]) | Growth Rate (U2OS; [7]) | Growth Rate (U2OS; [9]) | Growth Rate (HEK-293T; [2]) | Growth Rate (U2OS; [8]) | Growth Rate (HEK-293T; [3]) | Growth Rate (HEK-293T; [4]) | Growth Rate (HEK-293T; [6]) | also measured
1 | N[C@@]1(C(=O)O)CC[C@H]2[C@H](C(=O)O)[C@H]21 | 0.85 | 0.5 | 0.44 | 0.63 | 0.57 | 0.52 | 0.35 | -1 | 0.86 | 0.76 | 0.67 | 0.94 | 0.7 | 1 | 0.97 | 0.94 | – | – | – | – | Growth Rate (Fibroblast; [1]): -0.03; Growth Rate (Fibroblast; [7]): 0.79; Growth Rate (HEK-293T; [1]): 0.6; Growth Rate (HEK-293T; [9]): 0.86
2 | Br.Cc1cccc(C2CN(C)CCc3c2cc(O)c(O)c3Cl)c1 (stereo not given) | 0.18 | – | – | – | – | – | – | – | – | 0.97 | 0.92 | – | 0.87 | 0.92 | 0.97 | 0.8 | 0.84 | 0.81 | 0.71 | 0.95 | Growth Rate (Fibroblast; [1]): -0.09; Growth Rate (HEK-293T; [10]): 0.45; Growth Rate (HEK-293T; [5]): 0.8; Growth Rate (HEK-293T; [7]): 0.81; Growth Rate (HEK-293T; [8]): 0.93
3 | CCc1cc2c(cc1-c1cccc(S(=O)(=O)F)c1)C(C)(C)c1[nH]c3cc(C#N)ccc3c1C2=O | 0.22 | 0.03 | -0.15 | 0.17 | -0.21 | -0.18 | 0.58 | -1 | -0.03 | 0.92 | 0.61 | 0.81 | 0.58 | 0.78 | 0.78 | 0.5 | – | 0.46 | 0.99 | 0.78 | Growth Rate (Fibroblast; [10]): 0.66; Growth Rate (Fibroblast; [7]): 0.47; Growth Rate (U2OS; [1]): 0.95; Growth Rate (HEK-293T; [1]): 0.26; Growth Rate (HEK-293T; [10]): 0.37; Growth Rate (HEK-293T; [5]): 0.6; Growth Rate (HEK-293T; [7]): 0.62; Growth Rate (HEK-293T; [8]): 1
4 | Cc1cc(-c2ccc3c(c2)CC[C@H]3N2CC3(CCN(C(=O)Cc4cn5cc(C)sc5n4)CC3)C2)ncn1 [PF-5190457] | 0.62 | -0.34 | 0.22 | 0.88 | 0.37 | 0.57 | – | -0.98 | – | – | – | 0.99 | 0.94 | – | – | 0.77 | – | – | – | 0.98 | –
5 | N#Cc1cc(F)cc(-c2nc(-c3ccc(F)cn3)no2)c1 | 0.68 | -0.02 | 0.63 | – | 0.84 | 0.6 | – | -0.87 | -0.32 | 0.62 | 0.46 | 0.86 | 0.57 | – | – | 0.21 | 0.65 | – | – | – | Growth Rate (HEK-293T; [1]): 0.85
6 | CC(C)OC(=O)N1CCC(Oc2ncnc3c2cnn3-c2ccc(S(C)(=O)=O)cc2F)CC1 | -0.13 | 0.15 | 0.04 | 0.61 | 0.38 | 0.47 | 0.69 | -1 | – | 0.7 | – | – | – | – | 0.97 | – | – | 0.81 | 0.82 | 0.98 | Growth Rate (Fibroblast; [1]): 0.77; Growth Rate (Fibroblast; [7]): 0.58
7 | CC[S+]([O-])c1nc(-c2cccc(OCc3ccccc3)c2)cc(C(F)(F)F)n1 (stereo not given) | – | -0.79 | -0.65 | -0.52 | -0.48 | -0.4 | -0.5 | -1 | -0.91 | -0.17 | -0.48 | -0.16 | -0.19 | 0.03 | 0.16 | – | -0.09 | -0.65 | -0.45 | -0.27 | Growth Rate (Fibroblast; [10]): -0.73; Growth Rate (HEK-293T; [10]): -0.82; Growth Rate (HEK-293T; [5]): -0.65; Growth Rate (HEK-293T; [7]): -0.43; Growth Rate (HEK-293T; [8]): -0.13; Growth Rate (HEK-293T; [9]): -0.24
8 | CC(C)COc1ccc(CNC(=O)N(Cc2ccc(F)cc2)C2CCN(C)CC2)cc1 [PIMAVANSERIN] | – | 0.97 | 0.37 | -0.05 | 0.14 | 0.27 | 0.26 | – | 0.56 | 0.04 | 0.62 | 0.31 | 0.57 | 0.26 | 0.24 | – | 0.5 | -0.67 | -0.29 | -0.21 | Growth Rate (Fibroblast; [10]): -0.26; Growth Rate (HEK-293T; [10]): 0.4; Growth Rate (HEK-293T; [5]): 0.31; Growth Rate (HEK-293T; [7]): 0.1; Growth Rate (HEK-293T; [8]): -0.29; Growth Rate (HEK-293T; [9]): -0.01

Reference: ChEMBL document CHEMBL5058564, “EUbOPEN Chemogenomics Library 2 (Incucyte)” (2022)
